Values of other authors as cited in PubChem BioAssay AID1259409 (Chemical Carcinogenesis Research Information System (CCRIS), 2018).
“And” between values parts separate entries of the source, which are not always exact repeats. Equal values may be shown once.

System: rodent chemically induced tumor inhibition, incidence and multiplicity
Experiment: CCRIS tumor inhibitor studies
Source text: The CCRIS database contains chemical records with carcinogenicity, mutagenicity, tumor promotion, and tumor inhibition test results. It was developed by the National Cancer Institute (NCI). Data are derived from studies cited in primary journals, current awareness tools, NCI reports, and other sources. Test results have been reviewed by experts in carcinogenesis and mutagenesis.
CCRIS provides historical information from the years 1985 - 2011. It is no longer updated.
This is an archive assay for CCRIS tumor inhibitor studies.

O=c1oc2ccccc2c(O)c1Cc1c(O)c2ccccc2oc1=O
tumour outcome (control, treated, inhibition, significance) (Carcinogen: 17BETA-ESTRADIOL, 50-28-2, Dose [Inhibitor]: 0, 0.09% IN DIET BEGINNING 5 D POST CARCINOGEN DOSE (STUDY DURATION: 7.5 MO), Route [Inhibitor]: ORAL, Species: HAMSTER, Strain/Sex: SYRIAN/MALE, Target Tissue: Type of Lesion: KIDNEY: TUMOR, Dose [Carcinogen]: 25 MG PELLET REPLACED WITH A SECOND PELLET AFTER 4 MO, Promoter: NONE USED): 13/13 (100%), 7/12 (58%), 42%, p<0.05

CN1C(=O)NC(c2ccccc2)(c2ccccc2)C1=O
tumour outcome (control, treated, inhibition, significance) (Carcinogen: 7,12-DIEMTHYLBENZ[A]ANTHRACENE, 57-97-6, Dose [Inhibitor]: 0, 200 UG/D IN ETHANOL/DRINKING WATER SOLUTION (1:500 ML) ADMINISTERED TO PINEALECTOMIZED RATS BEGINNING 1 WK POST CARCI, Route [Inhibitor]: ORAL, Species: RAT, Strain/Sex: SPRAGUE-DAWLEY/FEMALE, Target Tissue: Type of Lesion: MAMMARY GLAND: TUMOR, Dose [Carcinogen]: 10 MG/ML SESAME OIL ADMINISTERED ONCE AT 55 D OF AGE, Promoter: NONE USED): 80%, 36%, 55%, p<0.05
tumour outcome (control, treated, inhibition, significance) (Carcinogen: 7,12-DIMETHYLBENZ[A]ANTHRACENE, 57-97-6, Dose [Inhibitor]: 0, 200 UG/D ETHANOL/DRINKING WATER SOLUTION (1:500 ML) ADMINISTERED TO INTACT RATS BEGINNING 1 WK POST CARCINOGEN DOSE A, Route [Inhibitor]: ORAL, Species: RAT, Strain/Sex: SPRAGUE-DAWLEY/FEMALE, Target Tissue: Type of Lesion: MAMMARY GLAND: TUMOR, Dose [Carcinogen]: 10 MG/ML SESAME OIL ADMINISTERED ONCE AT 55 D OF AGE, Promoter: NONE USED): 88%, 24%, 73%, p<0.005
tumour outcome (control, treated, inhibition, significance) (Carcinogen: 7,12-DIMETHYLBENZ[A]ANTHRACENE, 57-97-6, Dose [Inhibitor]: 0, 200 UG/D IN ETHANOL/DRINKING WATER SOLUTION (1:500 ML) ADMINISTERED TO INTACT RATS BEGINNING 1 WK POST CARCINOGEN DOS, Route [Inhibitor]: ORAL, Species: RAT, Strain/Sex: SPRAGUE-DAWLEY/FEMALE, Target Tissue: Type of Lesion: MAMMARY GLAND: TUMOR, Dose [Carcinogen]: 10 MG/ML SESAME OIL ADMINISTERED ONCE AT 55 D OF AGE, Promoter: NONE USED): 70%, 16%, 77%, p<0.005
tumour outcome (control, treated, inhibition, significance) (Carcinogen: 7,12-DIMETHYLBENZ[A]ANTHRACENE, 57-97-6, Dose [Inhibitor]: 0, 200 UG/D IN ETHANOL/DRINKING WATER SOLUTION (1:500 ML) ADMINISTERED TO INTACT RATS BEGINNING 1 WK PRIOR TO CARCINOGEN, Route [Inhibitor]: ORAL, Species: RAT, Strain/Sex: SPRAGUE-DAWLEY/FEMALE, Target Tissue: Type of Lesion: MAMMARY GLAND: TUMOR, Dose [Carcinogen]: 10 MG/ML SESAME OIL ADMINISTERED ONCE AT 55 D OF AGE, Promoter: NONE USED): 70%, 27%, 61%, p<0.05 and 88%, 38%, 57%, p<0.05
tumour outcome (control, treated, inhibition, significance) (Carcinogen: 7,12-DIMETHYLBENZ[A]ANTHRACENE, 57-97-6, Dose [Inhibitor]: 0, 200 UG/D IN ETHANOL/DRINKING WATER SOLUTION (1:500 ML) ADMINISTERED TO PINEALECTOMIZED RATS BEGINNING 1 WK POST CARCI, Route [Inhibitor]: ORAL, Species: RAT, Strain/Sex: SPRAGUE-DAWLEY/FEMALE, Target Tissue: Type of Lesion: MAMMARY GLAND: TUMOR, Dose [Carcinogen]: 10 MG/ML SESAME OIL ADMINISTERED ONCE AT 55 D OF AGE, Promoter: NONE USED): 90%, 31%, 66%, p<0.005
tumour outcome (control, treated, inhibition, significance) (Carcinogen: 7,12-DIMETHYLBENZ[A]ANTHRACENE, 57-97-6, Dose [Inhibitor]: 0, 200 UG/D IN ETHANOL/DRINKING WATER SOLUTION (1:500 ML) ADMINISTERED TO PINEALECTOMIZED RATS BEGINNING 1 WK PRIOR TO C, Route [Inhibitor]: ORAL, Species: RAT, Strain/Sex: SPRAGUE-DAWLEY/FEMALE, Target Tissue: Type of Lesion: MAMMARY GLAND: TUMOR, Dose [Carcinogen]: 10 MG/ML SESAME OIL ADMINISTERED ONCE AT 55 D OF AGE, Promoter: NONE USED): 90%, 64%, 29%, not calculated
tumour outcome (control, treated, inhibition, significance) (Carcinogen: 7,12-DIMETHYLBENZ[A]ANTHRACENE, 57-97-6, Dose [Inhibitor]: 0, 200 UG/D IN ETHANOL/DRINKING WATER SOLUTION. (1:500 ML) ADMINISTERED TO PINEALECTOMIZED RATS BEGINNING 1 WK PRIOR TO, Route [Inhibitor]: ORAL, Species: RAT, Strain/Sex: SPRAGUE-DAWLEY/FEMALE, Target Tissue: Type of Lesion: MAMMARY GLAND: TUMOR, Dose [Carcinogen]: 10 MG/ML SESAME OIL ADMINISTERED ONCE AT 55 D OF AGE, Promoter: NONE USED): 80%, 65%, 19%, not calculated

CC(=O)NCCCCCCNC(C)=O
tumour outcome (control, treated, inhibition, significance) (Carcinogen: 7,12-DIMETHYLBENZ[A]ANTHRACENE, 57-97-6, Dose [Inhibitor]: 0, 1% IN DRINKING WATER FOR DURATION OF STUDY (STUDY DURATION: 13 WK), Route [Inhibitor]: ORAL, Species: HAMSTER, Strain/Sex: SYRIAN/MALE, Target Tissue: Type of Lesion: CHEEK POUCH: TUMOR, Dose [Carcinogen]: 0.5% IN ACETONE/HEAVY MINERAL OIL (1:20) 2/WK FOR 11 WK, Promoter: NONE USED): 13/13 (100%), 13/13 (100%), 0%, not significant
tumour outcome (control, treated, inhibition, significance) (Carcinogen: 7,12-DIMETHYLBENZ[A]ANTHRACENE, 57-97-6, Dose [Inhibitor]: 0, 500 MG/KG BW 3/WK FOR DURATION OF STUDY (STUDY DURATION: 13 WK), Route [Inhibitor]: INTRAPERITONEAL, Species: HAMSTER, Strain/Sex: SYRIAN/MALE, Target Tissue: Type of Lesion: CHEEK POUCH: TUMOR, Dose [Carcinogen]: 0.5% IN ACETONE/HEAVY MINERAL OIL (1:20) 2/WK FOR 11 WK, Promoter: NONE USED): 13/13 (100%), 13/13 (100%), 0%, not significant
tumour outcome (control, treated, inhibition, significance) (Carcinogen: N-METHYL-N-NITROSOUREA [684-93-5], Dose [Inhibitor]: 1000 PPM IN DIET FOR 19 WK BEGINNING 1 WK PRIOR TO FIRST CARCINOGEN DOSE (STUDY DURATION: 19 WK), Route [Inhibitor]: ORAL, Species: RAT, Strain/Sex: SPRAGUE-DAWLEY/FEMALE, Target Tissue: Type of Lesion: MAMMARY GLAND: TUMOR, Dose [Carcinogen]: 40 MG/KG BW ONCE (STUDY DURATION: 19 WK), Promoter: NONE): 18/20 (90%), 17/20 (85%), 6% not significant
tumour outcome (control, treated, inhibition, significance) (Carcinogen: N-METHYL-N-NITROSOUREA [684-93-5], Dose [Inhibitor]: 2000 PPM IN DIET FOR 19 WK BEGINNING 1 WK PRIOR TO FIRST CARCINOGEN DOSE (STUDY DURATION: 19 WK), Route [Inhibitor]: ORAL, Species: RAT, Strain/Sex: SPRAGUE-DAWLEY/FEMALE, Target Tissue: Type of Lesion: MAMMARY GLAND: TUMOR, Dose [Carcinogen]: 40 MG/KG BW ONCE (STUDY DURATION: 19 WK), Promoter: NONE): 18/20 (90%), 17/20 (85%), 6%, not significant

CC(C)=CCC/C(C)=C/CC/C(C)=C/CCC1(C)CCc2cc(O)ccc2O1 (stereo unspecified)
tumour outcome (control, treated, inhibition, significance) (Carcinogen: 7,12-DIMETHYLBENZ[A]ANTHRACENE, 57-97-6, Dose [Inhibitor]: 0, 3.381 UMOL/G IN DIET FOR DURATION OF STUDY (STUDY DURATION: 18 WK), Route [Inhibitor]: ORAL, Species: RAT, Strain/Sex: SPRAGUE-DAWLEY/FEMALE, Target Tissue: Type of Lesion: MAMMARY GLAND: TUMOR, Dose [Carcinogen]: 50 MG/KG IN SESAME OIL ONCE, Promoter: NONE USED): 88%, 72%, 18%, not significant
tumour outcome (control, treated, inhibition, significance) (Carcinogen: N-METHYL-N-NITROSOUREA, 684-93-5, Dose [Inhibitor]: 0, 3.381 UMOL/G IN DIET FOR DURATION OF STUDY (STUDY DURATION: 19 WK), Route [Inhibitor]: ORAL, Species: RAT, Strain/Sex: SPRAGUE-DAWLEY/FEMALE, Target Tissue: Type of Lesion: MAMMARY GLAND: TUMOR, Dose [Carcinogen]: 30 MG/KG IN ACIDIFIED SALINE ONCE, Promoter: NONE USED): 60%, 76%, -27%, not significant

CC(C#Cc1ccc(Oc2ccc(F)cc2)o1)N(O)C(N)=O (stereo unspecified)
tumour outcome (control, treated, inhibition, significance) (Carcinogen: 4-(METHYLNITROSAMINO)-1-(3-PYRIDYL)-1-BUTANONE, 64091-91-4, Dose [Inhibitor]: 0, 74 MG/KG DIET FOR DURATION OF STUDY BEGINNING 2 WK PRIOR TO CARCINOGEN TREATMENT (STUDY DURATION: 25 WK), Route [Inhibitor]: ORAL, Species: MOUSE, Strain/Sex: STRAIN-A/FEMALE, Target Tissue: Type of Lesion: LUNG: TUMOR, Dose [Carcinogen]: 9.1 MG/MOUSE IN DRINKING WATER FOR 7 WK, Promoter: NONE USED): 29/29 (100%), 20/25 (80%), 20%, p<0.001

CC(C)(C)c1ccccc1O
tumour outcome (control, treated, inhibition, significance) (Carcinogen: BENZO[A]PYRENE, 50-32-8, Dose [Inhibitor]: 0.03 MMOL/G OF DIET DAILY STARTING 7 D BEFORE AND CONTINUING THROUGH 3 D AFTER CARCINOGEN TREATMENT FOLLOWED BY OBSERVAT, Route [Inhibitor]: ORAL, Species: MOUSE, Strain/Sex: ICR/FEMALE, Target Tissue: Type of Lesion: FORESTOMACH: NEOPLASM, Dose [Carcinogen]: 1 MG IN 0.2 ML CORN OIL 2/WK FOR 4 WK, Promoter: NONE USED): 94%, 85%, 10%, not significant and 100%, 95%, 5%, not significant
